From US20210024483A1, “HETEROCYLCOALKENYL DERIVATIVES USEFUL AS AGONISTS OF THE GPR120 AND / OR GPR40” (Janssen Pharmaceutica NV, priority 2018, published 2021)
pEC50: −log10 of the molar value.

How the values were obtained:
GPR40 = GPR40 (UniProt O14842); assay: GPR40 Calcium Flux Assay; format: cell-based; conditions: transfected HEK293 cells stably expressing human or rat GPR40; species not given
Description: Biological Example 3: In Vitro Assay
Compounds were tested in a calcium flux assay using transfected HEK293 cells stably expressing either human GPR40 or rat GPR40. Human GPR40 expressing cells were cultured in DMEM-High Glucose media supplemented with 10% fetal bovine serum, 1×L-Glutamine, 1× Penicillin/Streptomycin and 500 μg/mL G418. Rat GPR40 expressing cells were cultured in DMEM-High Glucose media supplemented with 10% fetal bovine serum and 1 μg/mL puromycin. Cells were plated into poly-D-lysine coated 384-well plates and cultured overnight in a 37° C. humidified tissue culture incubator under 5% CO2/90% O2 atmosphere.
On the day of the experiment, the culture media was replaced with assay buffer (HBSS, 20 mM HEPES, 0.1% BSA) and the cells incubated at 37° C. for 1 h. Calcium-sensitive fluorescent dye (Fluo 8 No-Wash Calcium Dye, ABD Bioquest) was then added and the cells incubated for another 30 min at 37° C. followed by 15 min at room temperature while protected from the light. The cell plate and a plate of diluted compounds of Formula (I) were loaded into a fluorescent plate reader that added compounds onto the cells while measuring the fluorescence intensity of each well. The plate reader recorded fluorescence intensity at 1 second intervals for 8 min and provided the data for analysis in an Excel format. EC50 values were calculated using Prism (GraphPad) software.

[1] = tested on: DIO mice (C57Bl6 on high fat diet); assay: GPR120 DIO Mice OGTT Screening; format: in vivo, mouse; conditions: 3 mg/kg, glucose AUC −30 to 90 min, change from vehicle
Description: GPR120 DIO Mice OGTT Screening
18-22 week old, C57Bl6 mice on a high fat diet (60% HFD) for 12-16 weeks (average body weight ˜37-41 g) were fasted for 6 hr, with removal of food occurring at 7 am on the morning of the study. The animals were sorted into treatment groups the day before the study by body weight. Animals outside the bounds of ˜30-50 g were left out of the study. The animals had been handled and shammed a total of 5-8 days (1-3 days immediately prior to the study). Glucose (in 1 mL syringes) was drawn up the morning of the study. Test compounds were kept spinning and were only drawn into 1 ml syringes prior to study commencement. […]
Animals were moved into the testing room at ˜9-11 am, to yield them time to acclimate. […] All groups were dosed 30 minutes prior to glucose administration at a dose volume of 10 ml/kg (the dose volume was calculated separately for each individual animal). […]
Thirty minutes after the first dose (with test compound) animals were bled again for a second baseline, or T=0, and immediately dosed with glucose (20% solution; TEKNOVA, 250 ml sterile bottle w/catalogue number G0525) via a PO injection. The exact dose volume for glucose was also calculated separately for each individual animal.
Blood glucose was measured at 15, 30, 45, 60, and 90 minutes post-glucose administration via the snipped tail. […]

`Cc1c(CCC(=O)O)ccc(OCC2=C(c3ccc(Cl)cc3)COCC2)c1C` [ID No. 745, 3-[4-[[5-(4-chlorophenyl)-3,6-dihydro-2H-pyran-4-yl]methoxy]-2,3-dimethyl-phenyl]propanoic acid] was tested, and the pEC50 (GPR40) was under 5.00 and the “DIO lowering (−30 to 90)” value [1] was −63%.
